For 33 molecules, AC50 results are on record in US20250171437A1 (Agios Pharmaceuticals,Inc., priority 2022, published 2025).

This experiment concerns the target T1, human PAH with the R408W mutation (A375 R408W cells) (Homo sapiens, UniProt P00439, R408W).
T1 construct: expressed in transfected cells
T1 sequence (P00439 1-452 R408W): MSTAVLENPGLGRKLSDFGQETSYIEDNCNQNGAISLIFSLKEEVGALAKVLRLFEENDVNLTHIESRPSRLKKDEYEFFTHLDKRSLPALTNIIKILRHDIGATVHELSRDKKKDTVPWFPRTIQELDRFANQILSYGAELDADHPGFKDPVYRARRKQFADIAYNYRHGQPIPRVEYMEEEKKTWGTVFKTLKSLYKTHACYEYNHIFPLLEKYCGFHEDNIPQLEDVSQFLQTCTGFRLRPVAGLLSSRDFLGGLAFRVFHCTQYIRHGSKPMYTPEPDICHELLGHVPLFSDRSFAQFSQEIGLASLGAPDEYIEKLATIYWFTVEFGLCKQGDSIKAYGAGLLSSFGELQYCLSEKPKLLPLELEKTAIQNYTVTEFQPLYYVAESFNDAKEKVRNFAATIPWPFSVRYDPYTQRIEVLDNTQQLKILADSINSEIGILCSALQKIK
The experiment can be described thus: Cell Based Phenylalanine Flux Assay. Particulars: 24 hrs with compound, then 20 μM sepiapterin and 800 μM 13C9,15N-Phenylalanine for 4 hours, 13C-Tyrosine by LC-MS, average where tested multiple times. An outline of the steps:
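LC-MS quantitation of 13C-tyrosine in media gave AC50 values. Stable A375 R408W PAH cells were preincubated 24 h with compound, then fed 800 μM labelled Phe plus 20 μM sepiapterin for 4 h. Dose curves were 10-point, tested in duplicate, averaged over repeat runs.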

Setting [1] is: A375 cells expressing R408W PAH.

Structures are written as SMILES.

Usually AC50 stands for the concentration giving half of the maximal activity seen. `Cc1cccc2nc([C@H]3c4nc[nH]c4CCN3C(=O)c3nnc(-c4ccn(C)n4)o3)oc12` [Example 870, (R)-(5-(1-methyl-1H-pyrazol-3-yl)-1,3,4-oxadiazol-2-yl)(4-(7-methylbenzo[d]oxazol-2-yl)-6,7-dihydro-1H-imidazo[4,5-c]pyridin-5(4H)-yl)methanone]: where the note is “A375 R408W cells”, the AC50 lay within 1000 to 5000 nM. With `O=C(c1cn[nH]c1C(F)F)N1CCc2[nH]cnc2C1c1nc2cc(F)ccc2o1` (stereo not drawn), the concentration at half-maximal activity (AC50) under setting [1] lay within 1000 to 5000 nM. Take `CC(C)(O)c1nc(C(F)F)c(C(=O)N2CCc3[nH]cnc3[C@@H]2c2nc3cccc(OC(F)(F)F)c3o2)o1` [Example 530, (R)-(4-(difluoromethyl)-2-(2-hydroxypropan-2-yl)oxazol-5-yl)(4-(7-(trifluoromethoxy)benzo[d]oxazol-2-yl)-6,7-dihydro-1H-imidazo[4,5-c]pyridin-5(4H)-yl)methanone]: the AC50 (A375 R408W cells) was 500 to 1000 nM. Same read-out and setting: then `COc1cccc2nc([C@@H]3c4nc[nH]c4CCN3C(=O)c3oc(C(C)(C)O)nc3C(F)F)oc12` [Example 455, (S)-(4-(difluoromethyl)-2-(2-hydroxypropan-2-yl)oxazol-5-yl)(4-(7-methoxybenzo[d]oxazol-2-yl)-6,7-dihydro-1H-imidazo[4,5-c]pyridin-5(4H)-yl)methanone], with no more than 500 nM; and `Cc1ccc2oc([C@@H]3c4nc[nH]c4CCN3C(=O)c3oc(-c4cnn(C)c4)nc3C(F)F)nc2c1` [Example 771, (S)-(4-(difluoromethyl)-2-(1-methyl-1H-pyrazol-4-yl)oxazol-5-yl)(4-(5-methylbenzo[d]oxazol-2-yl)-6,7-dihydro-1H-imidazo[4,5-c]pyridin-5(4H)-yl)methanone], with no more than 500 nM.

As to `O=C(c1cnco1)N1CCc2[nH]cnc2C1c1nc2cc(F)ccc2o1` (stereo not drawn), the AC50 under setting [1] lay within 1000 to 5000 nM.

Consider `COCCOc1ccc2c(C(=O)N3CCc4[nH]cnc4C3c3nc4cc(F)ccc4o3)cnn2c1` (stereo not drawn), for which, under setting [1], the AC50 is no less than 5000 nM. Consider `Cc1cccc2nc([C@@H]3c4nc[nH]c4CCN3C(=O)c3nnc(-c4cnn(C(F)F)c4)o3)oc12` [Example 872, (S)-(5-(1-(difluoromethyl)-1H-pyrazol-4-yl)-1,3,4-oxadiazol-2-yl)(4-(7-methylbenzo[d]oxazol-2-yl)-6,7-dihydro-1H-imidazo[4,5-c]pyridin-5(4H)-yl)methanone], for which, for the setting “A375 R408W cells”, the half-maximal activity concentration (AC50) was in the range of 500 to 1000 nM. Consider `COc1cccc2nc([C@@H]3c4nc[nH]c4CCN3C(=O)c3cc(C(F)F)nn3C)oc12` [Example 777, (S)-(3-(difluoromethyl)-1-methyl-1H-pyrazol-5-yl)(4-(7-methoxybenzo[d]oxazol-2-yl)-6,7-dihydro-1H-imidazo[4,5-c]pyridin-5(4H)-yl)methanone], for which the AC50 (A375 R408W cells) is no more than 500 nM. Still for that read-out and setting: then `O=C(CCc1nccs1)N1CCc2[nH]cnc2[C@H]1c1nc2ccccc2o1` [Example 913, (S)-1-(4-(benzo[d]oxazol-2-yl)-6,7-dihydro-1H-imidazo[4,5-c]pyridin-5(4H)-yl)-3-(thiazol-2-yl)propan-1-one], with 500 to 1000 nM.

With `O=C(CCc1cnco1)N1CCc2[nH]cnc2C1c1nc2cccc(F)c2o1` (stereo not drawn), under setting [1], the concentration at half-maximal activity (AC50) lay in the range of 1000 to 5000 nM. For the molecule `O=C(c1ocnc1CC(F)F)N1CCc2[nH]cnc2[C@@H]1c1nc2ccccc2o1` [Example 874, (R)-(4-(benzo[d]oxazol-2-yl)-6,7-dihydro-1H-imidazo[4,5-c]pyridin-5(4H)-yl)(4-(2,2-difluoroethyl)oxazol-5-yl)methanone], under “A375 R408W cells”, the AC50 was 500 to 1000 nM. `O=C(c1nnc(-c2ccn(C(F)F)n2)o1)N1CCc2[nH]cnc2[C@@H]1c1nc2cccc(F)c2o1` [Example 861, (R)-(5-(1-(difluoromethyl)-1H-pyrazol-3-yl)-1,3,4-oxadiazol-2-yl)(4-(7-fluorobenzo[d]oxazol-2-yl)-6,7-dihydro-1H-imidazo[4,5-c]pyridin-5(4H)-yl)methanone]: the AC50 (A375 R408W cells) is 500 to 1000 nM. The same measure, in the same setting: then `Cn1cc(-c2nnc(C(=O)N3CCc4[nH]cnc4[C@H]3c3nc4ccc(F)c(F)c4o3)o2)cn1` [Example 515, (S)-(4-(6,7-difluorobenzo[d]oxazol-2-yl)-6,7-dihydro-1H-imidazo[4,5-c]pyridin-5(4H)-yl)(5-(1-methyl-1H-pyrazol-4-yl)-1,3,4-oxadiazol-2-yl)methanone], with 500 to 1000 nM; and `CC(O)c1nc(Br)c(C(=O)N2CCc3[nH]cnc3[C@@H]2c2nc3cc(F)ccc3o2)o1` (single isomer, unassigned) [Example 223], with 1000 to 5000 nM.

For the molecule `O=C(N1CCc2[nH]cnc2[C@H]1c1nc2cc(F)ccc2o1)C1(c2cnco2)CC1` [Example 917, (S)-(4-(5-fluorobenzo[d]oxazol-2-yl)-6,7-dihydro-1H-imidazo[4,5-c]pyridin-5(4H)-yl)(1-(oxazol-5-yl)cyclopropyl)methanone], the AC50 (A375 R408W cells) was in the range of 1000 to 5000 nM.

Consider `CC(C)n1ncnc1C(=O)N1CCc2[nH]cnc2[C@@H]1c1nc2cccc(F)c2o1` [Example 708, (R)-(4-(7-fluorobenzo[d]oxazol-2-yl)-6,7-dihydro-1H-imidazo[4,5-c]pyridin-5(4H)-yl)(1-isopropyl-1H-1,2,4-triazol-5-yl)methanone], for which the half-maximal activity concentration (AC50) (A375 R408W cells) is 500 to 1000 nM.

On to `O=C(c1ocnc1C(F)F)N1CCc2[nH]cnc2[C@@H]1c1nc2cc(F)cc(F)c2o1` [Example 310, (R)-(4-(5,7-difluorobenzo[d]oxazol-2-yl)-6,7-dihydro-1H-imidazo[4,5-c]pyridin-5(4H)-yl)(4-(difluoromethyl)oxazol-5-yl)methanone], for which the concentration at half-maximal activity (AC50) (A375 R408W cells) fell in the range of 500 to 1000 nM. Still for that read-out and setting: the same measure for `Cc1cccc2nc([C@@H]3c4nc[nH]c4CCN3C(=O)c3nnc(-c4ncccc4F)o3)oc12` [Example 858, (S)-(5-(3-fluoropyridin-2-yl)-1,3,4-oxadiazol-2-yl)(4-(7-methylbenzo[d]oxazol-2-yl)-6,7-dihydro-1H-imidazo[4,5-c]pyridin-5(4H)-yl)methanone]: no more than 500 nM. `Cc1ccc2nc(C3c4nc[nH]c4CCN3C(=O)c3nnc(-c4ccc(F)cn4)o3)oc2c1` (stereo not drawn): the AC50 under setting [1] fell in the range of 1000 to 5000 nM. As for `Cn1ccc(-c2nnc(C(=O)N3CCc4[nH]cnc4C3c3nc4cc(C(F)(F)F)ccc4o3)o2)n1` (stereo not drawn), under setting [1], the concentration at half-maximal activity (AC50) lay within 1000 to 5000 nM. On the same count and under the same terms, then `Cn1ncnc1C(=O)N1CCc2[nH]cnc2C1c1nc2ccc(F)cc2o1` (stereo not drawn), with 1000 to 5000 nM. The same measure, in the same setting: the same measure for `Cc1nc(CN(C)C)oc1C(=O)N1CCc2[nH]cnc2C1c1nc2cc(F)ccc2o1` (stereo not drawn): no less than 5000 nM. As to `Cc1ccc(F)c2nc([C@@H]3c4nc[nH]c4CCN3C(=O)c3oc(C(C)(C)O)nc3C(F)F)oc12` [Example 723, (S)-(4-(difluoromethyl)-2-(2-hydroxypropan-2-yl)oxazol-5-yl)(4-(4-fluoro-7-methylbenzo[d]oxazol-2-yl)-6,7-dihydro-1H-imidazo[4,5-c]pyridin-5(4H)-yl)methanone], the half-maximal activity concentration (AC50) (A375 R408W cells) is no more than 500 nM. Take `CC(C)(O)C1CCN(c2ccc3c(C(=O)N4CCc5[nH]cnc5C4c4nc5cc(F)ccc5o4)cnn3c2)CC1` (stereo not drawn): the AC50 under setting [1] fell in the range of 1000 to 5000 nM. Take `O=C(c1ocnc1C(F)F)N1CCc2[nH]cnc2[C@H]1c1nc2c(F)cc(F)cc2o1` [Example 301, (S)-(4-(4,6-difluorobenzo[d]oxazol-2-yl)-6,7-dihydro-1H-imidazo[4,5-c]pyridin-5(4H)-yl)(4-(difluoromethyl)oxazol-5-yl)methanone]: the concentration at half-maximal activity (AC50) (A375 R408W cells) was no more than 500 nM.

On to `CC(C)(O)c1nc(C(F)F)c(C(=O)N2CCc3[nH]cnc3[C@H]2c2nc3cccc(F)c3o2)o1` [Example 193, (S)-(4-(difluoromethyl)-2-(2-hydroxypropan-2-yl)oxazol-5-yl)(4-(7-fluorobenzo[d]oxazol-2-yl)-6,7-dihydro-1H-imidazo[4,5-c]pyridin-5(4H)-yl)methanone], for which, for the setting “A375 R408W cells”, the AC50 is no more than 500 nM. In the case of `O=C(c1nnc(-c2ccccn2)o1)N1CCc2[nH]cnc2C1c1nc2cc(C(F)(F)F)ccc2o1` (stereo not drawn), the concentration at half-maximal activity (AC50) under setting [1] was in the range of 1000 to 5000 nM.

Take `Cc1ccc2oc([C@@H]3c4nc[nH]c4CCN3C(=O)c3nnc(-c4cnn(C)c4)o3)nc2c1` [Example 111, (S)-(5-(1-methyl-1H-pyrazol-4-yl)-1,3,4-oxadiazol-2-yl)(4-(5-methylbenzo[d]oxazol-2-yl)-6,7-dihydro-1H-imidazo[4,5-c]pyridin-5(4H)-yl)methanone]: under “A375 R408W cells”, the half-maximal activity concentration (AC50) is 500 to 1000 nM. On the same count and under the same terms, then `COc1cccc2oc([C@H]3c4nc[nH]c4CCN3C(=O)c3nc(C(F)F)nn3C)nc12` [Example 602, (R)-(3-(difluoromethyl)-1-methyl-1H-1,2,4-triazol-5-yl)(4-(4-methoxybenzo[d]oxazol-2-yl)-6,7-dihydro-1H-imidazo[4,5-c]pyridin-5(4H)-yl)methanone], with 500 to 1000 nM. On to `Cc1nc(C(C)(C)O)oc1C(=O)N1CCc2[nH]cnc2C1c1nc2cc(F)ccc2o1` (stereo not drawn), for which, under setting [1], the AC50 is no less than 5000 nM. On to `COc1ccc2oc(C3c4nc[nH]c4CCN3C(=O)c3cnco3)nc2c1` (stereo not drawn), for which the AC50 under setting [1] was 1000 to 5000 nM. With `O=C(c1nnc(-c2ccccn2)o1)N1CCc2[nH]cnc2[C@@H]1c1nc2cccc(C(F)(F)F)c2o1` [Example 837, (R)-(5-(pyridin-2-yl)-1,3,4-oxadiazol-2-yl)(4-(7-(trifluoromethyl)benzo[d]oxazol-2-yl)-6,7-dihydro-1H-imidazo[4,5-c]pyridin-5(4H)-yl)methanone], the half-maximal activity concentration (AC50) (A375 R408W cells) is 500 to 1000 nM.
